Assay results published in patent US20240132484A1, “BROAD SPECTRUM ANTIVIRAL COMPOUNDS TARGETING THE SKI COMPLEX” (priority 2020, published 2024).
Several values for one entry are separate records, joined by “and”; a condition that tells them apart may be missing. Identical values can stand only once. Entries after “also recorded” stand apart in the source; their conditions may differ. Like-named read-outs stand apart in the source and are kept apart here.

Columns and labels:
SARS2 = assay type: cell-based, SARS-CoV-2; settings: for Percentage Inhibition Average 1 μM / Screening data (Relative infection to DMSO controls) Average 1 μM: SARS2, 1 μM; for Screening data (Relative infection to DMSO controls) Average 1 μM / Screening data (Relative infection to DMSO controls) Average 5 μM / Screening data (Relative infection to DMSO controls) Average 10 μM / Screening data (Relative infection to DMSO controls) Average 25 μM / Screening data (Relative infection to DMSO controls) Average 50 μM / Average (relative infection to DMSO over the 5 tested concentrations): 100=DMSO control; for Percentage Inhibition Average 5 μM / Screening data (Relative infection to DMSO controls) Average 5 μM: SARS2, 5 μM; for Percentage Inhibition Average 10 μM / Screening data (Relative infection to DMSO controls) Average 10 μM: SARS2, 10 μM; for Percentage Inhibition Average 25 μM / Screening data (Relative infection to DMSO controls) Average 25 μM: SARS2, 25 μM; for Percentage Inhibition Average 50 μM / Screening data (Relative infection to DMSO controls) Average 50 μM: SARS2, 50 μM; for Average (relative infection to DMSO over the 5 tested concentrations): SARS2, average over 1 to 50 uM; for Percentage Infection Relative to Appropriate DMSO Control with Avg Background Subtraction: Nunc Celigo plates; for Infection Data, Average, Mean: average of Exp 1-2 (SMW491, SMW492)
cells (nuclei count) = settings: for Relative cell count to DMSO controls, Average 1 μM / Relative cell count to DMSO controls, Average 5 μM / Relative cell count to DMSO controls, Average 10 μM / Relative cell count to DMSO controls, Average 25 μM / Relative cell count to DMSO controls, Average 50 μM: toxicity data, 100=DMSO control; for Relative cell count to DMSO controls, Average (for correlation analysis): average value over the 5 tested concentrations (1 to 50 uM); for Toxicity Data, Average, Mean percentage relative to DMSO control: Average of Exp 1 (SMW491) and Exp 2 (SMW492)

| Compound | Percentage Inhibition Average 1 μM (SARS2) [%] | Screening data (Relative infection to DMSO controls) Average 1 μM (SARS2) | Percentage Inhibition Average 5 μM (SARS2) [%] | Screening data (Relative infection to DMSO controls) Average 5 μM (SARS2) | Percentage Inhibition Average 10 μM (SARS2) [%] | Screening data (Relative infection to DMSO controls) Average 10 μM (SARS2) | Percentage Inhibition Average 25 μM (SARS2) [%] | Screening data (Relative infection to DMSO controls) Average 25 μM (SARS2) | Percentage Inhibition Average 50 μM (SARS2) [%] | Screening data (Relative infection to DMSO controls) Average 50 μM (SARS2) | Average (relative infection to DMSO over the 5 tested concentrations) (SARS2) | Relative cell count to DMSO controls, Average 1 μM (cells (nuclei count)) | Relative cell count to DMSO controls, Average 5 μM (cells (nuclei count)) | Relative cell count to DMSO controls, Average 10 μM (cells (nuclei count)) | Relative cell count to DMSO controls, Average 25 μM (cells (nuclei count)) | Relative cell count to DMSO controls, Average 50 μM (cells (nuclei count)) | Relative cell count to DMSO controls, Average (for correlation analysis) (cells (nuclei count)) | SARS2 antiviral activity (SARS2) | further results |
| --- | --- | --- | --- | --- | --- | --- | --- | --- | --- | --- | --- | --- | --- | --- | --- | --- | --- | --- | --- |
| CC1=C(C(=O)NCC2CCCCC2)C(c2cc(C)c(Br)s2)NC(=O)N1 (stereo not drawn) [SILCS68] | 32.72 | 67.28 | 28.63 | 71.37 | 16.60 | 83.40 | −10.69 | 110.69 | 20.80 | 79.20 | 82.39 | 117.26 | 114.63 | 110.48 | 100.14 | 91.82 | 106.87 | – | – |
| CN1CCN(CC(O)COc2cccc(N3CCCCC3)c2CNCCc2ccccc2F)CC1 (stereo not drawn) [SILCS10] | 47.40 | 52.60 | 56.27 | 43.73 | 58.42 | 41.58 | 66.00 | 34.00 | 93.61 | 6.39 | 35.66 | 131.94 | 141.21 | 131 | 50.46 | 84.08 | 107.74 | strong activity | Toxicity Data, Average, Mean (relative to DMSO control) (cells (nuclei count); Average of Exp 1-3, 1 uM): 131.94%; Toxicity Data, Average, Mean (relative to DMSO control) (cells (nuclei count); Average of Exp 1-3, 5 uM): 141.21%; Toxicity Data, Average, Mean (relative to DMSO control) (cells (nuclei count); Average of Exp 1-3, 10 uM): 131.00%; Toxicity Data, Average, Mean (relative to DMSO control) (cells (nuclei count); Average of Exp 1-3, 25 uM): 50.46%; Toxicity Data, Average, Mean (relative to DMSO control) (cells (nuclei count); Average of Exp 1-3, 50 uM): 84.08% |
| COc1ccc(CNCCc2ccccc2F)c(OCC(O)CN2CCN(C)CC2)c1 (racemic) [SILCS41] | 51.68 | 48.32 | 82.65 | 17.35 | 98.13 | 1.87 | 97.07 | 2.93 | 94.09 | 5.91 | 15.28 | 118.33 | 139.55 | 124.03 | 118.34 | 101.49 | 120.35 | better activity than the original compound; also recorded: improved properties over UMB18g | Percentage Infection Relative to Appropriate DMSO Control with Avg Background Subtraction (SARS2; Exp 1 (SMW491), 1 uM): 92.14% and 78.53%; Percentage Infection Relative to Appropriate DMSO Control with Avg Background Subtraction (SARS2; Exp 1 (SMW491), 5 uM): 20.40% and 20.73%; Percentage Infection Relative to Appropriate DMSO Control with Avg Background Subtraction (SARS2; Exp 1 (SMW491), 10 uM): 2.55% and 1.51%; Percentage Infection Relative to Appropriate DMSO Control with Avg Background Subtraction (SARS2; Exp 1 (SMW491), 25 uM): 2.26% and 4.77%; Percentage Infection Relative to Appropriate DMSO Control with Avg Background Subtraction (SARS2; Exp 1 (SMW491), 50 uM): 5.27% and 3.84%; Percentage Infection Relative to Appropriate DMSO Control with Avg Background Subtraction (SARS2; Exp 2 (SMW492), 1 uM): 11.86% and 10.73%; Percentage Infection Relative to Appropriate DMSO Control with Avg Background Subtraction (SARS2; Exp 2 (SMW492), 5 uM): 15.34% and 12.91%; Percentage Infection Relative to Appropriate DMSO Control with Avg Background Subtraction (SARS2; Exp 2 (SMW492), 10 uM): 1.08% and 2.35%; Percentage Infection Relative to Appropriate DMSO Control with Avg Background Subtraction (SARS2; Exp 2 (SMW492), 25 uM): 1.58% and 3.10%; Percentage Infection Relative to Appropriate DMSO Control with Avg Background Subtraction (SARS2; Exp 2 (SMW492), 50 uM): 8.27% and 6.25%; Infection Data, Average, Mean (SARS2; n 4, 1 uM): 48.32%; Infection Data, Average, Mean (SARS2; n 4, 5 uM): 17.35%; Infection Data, Average, Mean (SARS2; n 4, 10 uM): 1.87%; Infection Data, Average, Mean (SARS2; n 4, 25 uM): 2.93%; Infection Data, Average, Mean (SARS2; n 4, 50 uM): 5.91%; Toxicity Data, Average, Mean percentage relative to DMSO control (cells (nuclei count); n=4, 1 uM): 118.33%; Toxicity Data, Average, Mean percentage relative to DMSO control (cells (nuclei count); n=4, 5 uM): 139.55%; Toxicity Data, Average, Mean percentage relative to DMSO control (cells (nuclei count); n=4, 10 uM): 124.03%; Toxicity Data, Average, Mean percentage relative to DMSO control (cells (nuclei count); n=4, 25 uM): 118.34%; Toxicity Data, Average, Mean percentage relative to DMSO control (cells (nuclei count); n=4, 50 uM): 101.49% |
